From patent publication US9732075B2, “Benzimidazole-proline derivatives” (IDORSIA PHARMACEUTICALS LTD, priority 2012, dated 2017)

Tests used:
human orexin-1 receptor = human orexin-1 receptor (Homo sapiens (Human), UniProt O43613); assay: In vitro assay: intracellular calcium measurements (FLIPR), antagonistic activity; type: cell-based; settings: CHO cells expressing human orexin-1 receptor, orexin-A agonist, geometric mean, read-out: IC50 Ox1
How it was run: (§1)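 Read-out: FLIPR fluo-4 calcium peak height in CHO cells bearing human orexin-1 or orexin-2 receptor, relative to orexin-A (approx. EC70) with vehicle. Antagonist preincubation 120 min; agonist orexin-A at 3 nM final. IC50 possibly normalized to an on-plate reference compound.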

human orexin-2 receptor = human orexin-2 receptor (Homo sapiens (Human), UniProt O43614); assay: as above; type: cell-based; settings: CHO cells expressing human orexin-2 receptor, orexin-A agonist, geometric mean, read-out: IC50 Ox2
How it was run: as §1

human orexin-1 receptor, sequence (O43613 whole entry): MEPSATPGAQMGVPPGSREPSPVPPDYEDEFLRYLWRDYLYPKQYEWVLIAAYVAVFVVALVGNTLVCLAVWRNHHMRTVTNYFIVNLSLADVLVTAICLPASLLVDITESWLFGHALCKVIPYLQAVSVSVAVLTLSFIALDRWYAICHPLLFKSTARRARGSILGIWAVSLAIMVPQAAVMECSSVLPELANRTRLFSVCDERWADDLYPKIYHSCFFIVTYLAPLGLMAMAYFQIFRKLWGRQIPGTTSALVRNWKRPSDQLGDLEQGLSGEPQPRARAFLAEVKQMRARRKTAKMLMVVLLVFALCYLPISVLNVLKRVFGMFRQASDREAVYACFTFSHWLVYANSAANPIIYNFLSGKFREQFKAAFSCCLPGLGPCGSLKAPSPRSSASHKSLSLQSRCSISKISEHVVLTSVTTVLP
human orexin-2 receptor, sequence (O43614 whole entry): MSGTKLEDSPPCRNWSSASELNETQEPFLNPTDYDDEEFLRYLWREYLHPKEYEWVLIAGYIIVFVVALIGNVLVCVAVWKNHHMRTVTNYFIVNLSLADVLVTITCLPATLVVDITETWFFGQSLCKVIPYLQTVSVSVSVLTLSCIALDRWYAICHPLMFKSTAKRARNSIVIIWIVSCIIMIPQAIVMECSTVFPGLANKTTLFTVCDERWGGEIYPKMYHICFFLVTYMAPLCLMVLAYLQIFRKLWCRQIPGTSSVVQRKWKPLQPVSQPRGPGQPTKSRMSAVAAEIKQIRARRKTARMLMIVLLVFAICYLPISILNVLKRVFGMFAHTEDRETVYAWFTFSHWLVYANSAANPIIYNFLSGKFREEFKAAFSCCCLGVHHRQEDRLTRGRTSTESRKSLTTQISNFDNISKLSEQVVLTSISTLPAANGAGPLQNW

IC50 (human orexin-1 receptor) [µM]	IC50 (human orexin-2 receptor) [µM]	Compound
0.057	0.038	COc1cccc(-c2ccccc2C(=O)N2CCC[C@@]2(C)c2nc3c(C)c(C)ccc3[nH]2)c1 [Ex. 5.117]
0.025	0.035	Cc1cccc(-c2ccccc2C(=O)N2CCC[C@@]2(C)c2nc3c(C)c(C)ccc3[nH]2)c1 [Ex. 5.118]
0.03	0.029	COc1ccc(-c2ccccc2C(=O)N2CCC[C@@]2(C)c2nc3c(C)c(C)ccc3[nH]2)cc1 [Ex. 5.119]
0.048	0.026	Cc1ccc(-c2ccccc2C(=O)N2CCC[C@@]2(C)c2nc3c(C)c(C)ccc3[nH]2)cc1 [Ex. 5.120]
0.056	0.043	Cc1ccc2[nH]c([C@]3(C)CCCN3C(=O)c3ccccc3-c3ccccc3F)nc2c1C [Ex. 5.121]
0.099	0.074	Cc1ccc2[nH]c([C@]3(C)CCCN3C(=O)c3ccccc3-c3ccc(F)cc3)nc2c1C [Ex. 5.122]
0.146	0.304	C[C@@]1(c2nc3cc(F)c(Br)cc3[nH]2)CCCN1C(=O)c1c(F)cccc1-n1nccn1 [Ex. 5.123]
0.113	0.411	Cc1ccc(-n2nccn2)c(C(=O)N2CCC[C@@]2(C)c2nc3cc(F)c(Br)cc3[nH]2)c1F [Ex. 5.124]
0.084	0.126	COc1cc(C(=O)N2CCC[C@@]2(C)c2nc3cc(F)c(Br)cc3[nH]2)c(-n2nccn2)cc1OC [Ex. 5.125]
0.001	0.006	Cc1cc(C(=O)N2CCC[C@@]2(C)c2nc3cc(F)c(Br)cc3[nH]2)c(-n2nccn2)cc1C [Ex. 5.127]
0.02	0.219	Cc1ccc(-n2cccn2)c(C(=O)N2CCC[C@@]2(C)c2nc3cc(F)c(Br)cc3[nH]2)c1 [Ex. 5.128]
0.02	0.062	C[C@@]1(c2nc3cc(F)c(Br)cc3[nH]2)CCCN1C(=O)c1cc(Cl)ccc1-n1nccn1 [Ex. 5.129]
0.024	0.058	Cc1ccc(C(=O)N2CCC[C@@]2(C)c2nc3cc(F)c(Br)cc3[nH]2)c(-n2nccn2)c1 [Ex. 5.130]
0.015	0.178	Cc1ccc(-n2nccn2)c(C(=O)N2CCC[C@@]2(C)c2nc3cc(F)c(Br)cc3[nH]2)n1 [Ex. 5.131]
0.054	0.615	COc1ccc(-n2nccn2)c(C(=O)N2CCC[C@@]2(C)c2nc3cc(F)c(Br)cc3[nH]2)c1F [Ex. 5.132]
0.011	0.045	C[C@@]1(c2nc3cc(C(F)(F)F)c(Cl)cc3[nH]2)CCCN1C(=O)c1c(F)cccc1-n1nccn1 [Ex. 5.133]
0.008	0.02	Cc1ccc(-n2nccn2)c(C(=O)N2CCC[C@@]2(C)c2nc3cc(C(F)(F)F)c(Cl)cc3[nH]2)c1F [Ex. 5.134]
0.01	0.049	COc1cc(C(=O)N2CCC[C@@]2(C)c2nc3cc(C(F)(F)F)c(Cl)cc3[nH]2)c(-n2nccn2)cc1OC [Ex. 5.135]
0.006	0.035	C[C@@]1(c2nc3cc(C(F)(F)F)c(Cl)cc3[nH]2)CCCN1C(=O)c1cc(F)ccc1-n1nccn1 [Ex. 5.136]

IC50 (human orexin-1 receptor) [µM]	IC50 (human orexin-2 receptor) [µM]	Compound
0.002	0.01	Cc1ccc(-n2cccn2)c(C(=O)N2CCC[C@@]2(C)c2nc3cc(C(F)(F)F)c(Cl)cc3[nH]2)c1 [Ex. 5.138]
0.002	0.021	C[C@@]1(c2nc3cc(C(F)(F)F)c(Cl)cc3[nH]2)CCCN1C(=O)c1cc(Cl)ccc1-n1nccn1 [Ex. 5.139]
0.005	0.028	Cc1ccc(C(=O)N2CCC[C@@]2(C)c2nc3cc(C(F)(F)F)c(Cl)cc3[nH]2)c(-n2nccn2)c1 [Ex. 5.140]
0.027	0.244	C[C@@]1(c2nc3cc(C(F)(F)F)c(Cl)cc3[nH]2)CCCN1C(=O)c1ccccc1-n1cccn1 [Ex. 5.141]
0.008	0.024	C[C@@]1(c2nc3cc(C(F)(F)F)c(Cl)cc3[nH]2)CCCN1C(=O)c1ccccc1-n1nccn1 [Ex. 5.142]
0.007	0.082	Cc1ccc(-n2cccn2)c(C(=O)N2CCC[C@@]2(C)c2nc3cc(C(F)(F)F)c(Cl)cc3[nH]2)n1 [Ex. 5.143]
0.02	0.21	C[C@@]1(c2nc3cc(C(F)(F)F)c(Cl)cc3[nH]2)CCCN1C(=O)c1cc(C(F)(F)F)ccc1-n1nccn1 [Ex. 5.144]
0.006	0.03	Cc1ccc(-n2nccn2)c(C(=O)N2CCC[C@@]2(C)c2nc3cc(C(F)(F)F)c(Cl)cc3[nH]2)n1 [Ex. 5.145]
0.015	0.043	COc1ccc(-n2nccn2)c(C(=O)N2CCC[C@@]2(C)c2nc3cc(C(F)(F)F)c(Cl)cc3[nH]2)c1F [Ex. 5.146]
0.027	0.112	C[C@@]1(c2nc3cc(C(F)(F)F)c(Cl)cc3[nH]2)CCCN1C(=O)c1cc(OC(F)(F)F)ccc1-n1nccn1 [Ex. 5.147]
0.035	0.159	COc1ccccc1-c1ccc(C)cc1C(=O)N1CCC[C@@]1(C)c1nc2cc(C(F)(F)F)c(Cl)cc2[nH]1 [Ex. 5.148]
0.021	0.026	COc1cccc(-c2ccc(C)cc2C(=O)N2CCC[C@@]2(C)c2nc3cc(C(F)(F)F)c(Cl)cc3[nH]2)c1 [Ex. 5.149]
0.037	0.049	COc1ccc(-c2ccc(C)cc2C(=O)N2CCC[C@@]2(C)c2nc3cc(C(F)(F)F)c(Cl)cc3[nH]2)cc1 [Ex. 5.150]
0.02	0.04	Cc1ccc(-c2ccccc2F)c(C(=O)N2CCC[C@@]2(C)c2nc3cc(C(F)(F)F)c(Cl)cc3[nH]2)c1 [Ex. 5.151]
0.024	0.051	Cc1ccc(-c2ccc(F)cc2)c(C(=O)N2CCC[C@@]2(C)c2nc3cc(C(F)(F)F)c(Cl)cc3[nH]2)c1 [Ex. 5.152]
0.022	0.035	Cc1ccc(-c2cccc(F)c2)c(C(=O)N2CCC[C@@]2(C)c2nc3cc(C(F)(F)F)c(Cl)cc3[nH]2)c1 [Ex. 5.153]
0.059	0.061	Cc1ccc(-c2ccc(C)cc2C(=O)N2CCC[C@@]2(C)c2nc3cc(C(F)(F)F)c(Cl)cc3[nH]2)cc1 [Ex. 5.154]
0.134	0.249	Cc1ccc(-c2cccc(C(F)(F)F)c2)c(C(=O)N2CCC[C@@]2(C)c2nc3cc(C(F)(F)F)c(Cl)cc3[nH]2)c1 [Ex. 5.155]
0.038	0.054	Cc1ccc(-c2ccc3c(c2)OCO3)c(C(=O)N2CCC[C@@]2(C)c2nc3cc(C(F)(F)F)c(Cl)cc3[nH]2)c1 [Ex. 5.156]

IC50 (human orexin-1 receptor) [µM]	IC50 (human orexin-2 receptor) [µM]	Compound
0.367	0.538	Cc1ccc(-c2ccc(C(F)(F)F)cc2)c(C(=O)N2CCC[C@@]2(C)c2nc3cc(C(F)(F)F)c(Cl)cc3[nH]2)c1 [Ex. 5.157]
0.525	0.879	Cc1ccc(-c2ccc(OC(F)(F)F)cc2)c(C(=O)N2CCC[C@@]2(C)c2nc3cc(C(F)(F)F)c(Cl)cc3[nH]2)c1 [Ex. 5.158]
0.023	0.037	Cc1ccc(-c2cccc(C#N)c2)c(C(=O)N2CCC[C@@]2(C)c2nc3cc(C(F)(F)F)c(Cl)cc3[nH]2)c1 [Ex. 5.159]
0.038	0.113	Cc1ccc(-c2ccc(C#N)cc2)c(C(=O)N2CCC[C@@]2(C)c2nc3cc(C(F)(F)F)c(Cl)cc3[nH]2)c1 [Ex. 5.160]
0.405	0.388	Cc1ccc(-c2cccc(C)c2C)c(C(=O)N2CCC[C@@]2(C)c2nc3cc(C(F)(F)F)c(Cl)cc3[nH]2)c1 [Ex. 5.161]
0.252	0.25	CCOc1ccc(-c2ccc(C)cc2C(=O)N2CCC[C@@]2(C)c2nc3cc(C(F)(F)F)c(Cl)cc3[nH]2)cc1 [Ex. 5.162]
0.142	0.401	Cc1ccc(-c2cccc(OC(F)(F)F)c2)c(C(=O)N2CCC[C@@]2(C)c2nc3cc(C(F)(F)F)c(Cl)cc3[nH]2)c1 [Ex. 5.163]
0.104	0.419	C[C@@]1(c2nc3cc(C(F)(F)F)ccc3[nH]2)CCCN1C(=O)c1c(F)cccc1-n1nccn1 [Ex. 5.164]
0.065	0.355	C[C@@]1(c2nc3cc(C(F)(F)F)ccc3[nH]2)CCCN1C(=O)c1cc(F)ccc1-n1nccn1 [Ex. 5.165]
0.013	0.059	C[C@@]1(c2nc3cc(C(F)(F)F)ccc3[nH]2)CCCN1C(=O)c1cc(Cl)ccc1-n1nccn1 [Ex. 5.166]
0.091	0.351	C[C@@]1(c2nc3cc(C(F)(F)F)ccc3[nH]2)CCCN1C(=O)c1ccccc1-n1nccn1 [Ex. 5.167]
0.064	0.57	COc1ccc(-n2nccn2)c(C(=O)N2CCC[C@@]2(C)c2nc3cc(C(F)(F)F)ccc3[nH]2)c1F [Ex. 5.168]
0.063	0.197	Cc1ccc(-n2nccn2)c(C(=O)N2CCC[C@@]2(C)c2nc3cc(C(F)(F)F)ccc3[nH]2)c1F [Ex. 5.169]
0.002	0.013	Cc1cc(C(=O)N2CCC[C@@]2(C)c2nc3cc(C(F)(F)F)ccc3[nH]2)c(-n2nccn2)cc1C [Ex. 5.170]
0.012	0.058	Cc1ccc(C(=O)N2CCC[C@@]2(C)c2nc3cc(C(F)(F)F)ccc3[nH]2)c(-n2nccn2)c1 [Ex. 5.171]
0.092	0.704	C[C@@]1(c2nc3cc(C(F)(F)F)ccc3[nH]2)CCCN1C(=O)c1cc(C(F)(F)F)ccc1-n1nccn1 [Ex. 5.172]
0.29	1.14	C[C@@]1(c2nc3cc(C(F)(F)F)ccc3[nH]2)CCCN1C(=O)c1cc(OC(F)(F)F)ccc1-n1nccn1 [Ex. 5.173]
0.059	0.133	COc1cc(C(=O)N2CCC[C@@]2(C)c2nc3cc(C(F)(F)F)ccc3[nH]2)c(-n2nccn2)cc1OC [Ex. 5.174]
0.024	0.355	Cc1ccc(-n2cccn2)c(C(=O)N2CCC[C@@]2(C)c2nc3cc(C(F)(F)F)ccc3[nH]2)c1 [Ex. 5.175]
